Results as given in the NIST ThermoML archive (doi:10.1016/j.jct.2011.06.013).
± gives the expanded uncertainty stated by the source.

How the values were obtained:
[1] = 101.33 kPa, Liquid; for viscosity: Falling or rolling sphere viscometry
[2] = xn = mol fraction of the nth substance listed; settings: 101 kPa, Liquid; for viscosity: Falling or rolling sphere viscometry
[3] = 293.15 K, Buoyancy - hydrostatic balance
[4] = 298.15 K, Buoyancy - hydrostatic balance
[5] = 298.15 K, Buoyancy - hydrostatic balance, x2 = 0.5
[6] = 298.15 K, Pycnometric method, x1 = 0.5

Work on `OCCO` [1,2-ethanediol] yielded a mass density [1, 3] of 1113.58 ± 6.7 kg/m3, a viscosity ([1]; 293.15 K) of 21.1 ± 0.86 mPa·s and a mass density ([1]; 293.15 K, Pycnometric method) of 1113.58 ± 6.7 kg/m3. It also gave a mass density ([1]; 312.46 K, Buoyancy - hydrostatic balance) of 1100.88 ± 6.6 kg/m3, a viscosity ([1]; 312.46 K) of 9.925 ± 0.4 mPa·s and a mass density ([1]; 314.45 K, Pycnometric method) of 1099.52 ± 6.6 kg/m3. It also gave a mass density ([1]; 333.25 K, Pycnometric method) of 1086.3 ± 6.5 kg/m3, a mass density ([1]; 333.55 K, Pycnometric method) of 1086.09 ± 6.5 kg/m3 and a mass density ([1]; 334.87 K, Buoyancy - hydrostatic balance) of 1085.13 ± 6.5 kg/m3. For the same molecule, the viscosity ([1]; 334.87 K) was 4.949 ± 0.2 mPa·s, the mass density ([1]; 349.24 K, Buoyancy - hydrostatic balance) was 1074.46 ± 6.5 kg/m3 and the viscosity ([1]; 349.24 K) was 3.517 ± 0.14 mPa·s. It also gave a mass density ([1]; 352.85 K, Pycnometric method) of 1071.71 ± 6.4 kg/m3, a mass density ([1]; 353.65 K, Pycnometric method) of 1071.1 ± 6.4 kg/m3 and a mass density ([1]; 357.05 K, Pycnometric method) of 1068.48 ± 6.4 kg/m3. For the same molecule, the mass density ([1]; 365.7 K, Buoyancy - hydrostatic balance) was 1061.7 ± 6.4 kg/m3, the viscosity ([1]; 365.7 K) was 2.39 ± 0.097 mPa·s and the mass density ([1]; 367.25 K, Pycnometric method) was 1060.47 ± 6.4 kg/m3. It also gave a mass density ([1]; 380.82 K, Buoyancy - hydrostatic balance) of 1049.47 ± 6.3 kg/m3, a viscosity ([1]; 380.82 K) of 1.815 ± 0.074 mPa·s and a mass density ([1]; 381.45 K, Pycnometric method) of 1048.95 ± 6.3 kg/m3. For the same molecule, the mass density ([1]; 395.55 K, Buoyancy - hydrostatic balance) was 1037.07 ± 6.2 kg/m3, the viscosity ([1]; 395.55 K) was 1.419 ± 0.058 mPa·s and the mass density ([1]; 411.65 K, Pycnometric method) was 1023 ± 6.2 kg/m3. For the same molecule, the mass density ([1]; 421.7 K, Buoyancy - hydrostatic balance) was 1013.93 ± 6.1 kg/m3, the viscosity ([1]; 421.7 K) was 0.96 ± 0.039 mPa·s and the mass density ([1]; 433.75 K, Pycnometric method) was 1002.77 ± 6 kg/m3. The mass density ([1]; 461.55 K, Pycnometric method) was 975.83 ± 5.9 kg/m3, the mass density ([1]; 464.4 K, Buoyancy - hydrostatic balance) was 972.98 ± 5.8 kg/m3 and the viscosity ([1]; 464.4 K) was 0.652 ± 0.027 mPa·s.

In the case of `OCCOCCO` [diethylene glycol], the mass density [1, 3] is reported as 1117.04 ± 6.7 kg/m3, the viscosity ([1]; 293.15 K) is reported as 36.52 ± 1.5 mPa·s and the mass density ([1]; 293.15 K, Pycnometric method) is reported as 1117.04 ± 6.7 kg/m3. For the same molecule, the mass density [1, 4] was 1114.02 ± 6.7 kg/m3, the viscosity ([1]; 298.15 K) was 28.36 ± 1.1 mPa·s and the mass density ([1]; 312.6 K, Buoyancy - hydrostatic balance) was 1104.9 ± 6.6 kg/m3. The viscosity ([1]; 312.6 K) was 15.25 ± 0.62 mPa·s, the mass density ([1]; 313.15 K, Pycnometric method) was 1104.54 ± 6.6 kg/m3 and the mass density ([1]; 314.15 K, Pycnometric method) was 1103.88 ± 6.6 kg/m3. For the same molecule, the mass density ([1]; 329.28 K, Buoyancy - hydrostatic balance) was 1093.62 ± 6.6 kg/m3, the viscosity ([1]; 329.28 K) was 8.458 ± 0.34 mPa·s and the mass density ([1]; 333.25 K, Pycnometric method) was 1090.82 ± 6.6 kg/m3. It also gave a mass density ([1]; 334.85 K, Pycnometric method) of 1089.68 ± 6.5 kg/m3, a mass density ([1]; 344.99 K, Buoyancy - hydrostatic balance) of 1082.27 ± 6.5 kg/m3 and a viscosity ([1]; 344.99 K) of 5.34 ± 0.22 mPa·s. It also gave a mass density ([1]; 349.77 K, Buoyancy - hydrostatic balance) of 1078.67 ± 6.5 kg/m3, a viscosity ([1]; 349.77 K) of 4.809 ± 0.2 mPa·s and a mass density ([1]; 352.55 K, Pycnometric method) of 1076.55 ± 6.5 kg/m3. The mass density ([1]; 352.85 K, Pycnometric method) was 1076.32 ± 6.5 kg/m3, the mass density ([1]; 366.77 K, Buoyancy - hydrostatic balance) was 1065.35 ± 6.4 kg/m3 and the viscosity ([1]; 366.77 K) was 3.231 ± 0.13 mPa·s. It also gave a mass density ([1]; 367.25 K, Pycnometric method) of 1064.96 ± 6.4 kg/m3, a mass density ([1]; 381.65 K, Pycnometric method) of 1053.01 ± 6.3 kg/m3 and a mass density ([1]; 411.05 K, Pycnometric method) of 1026.74 ± 6.2 kg/m3. The mass density ([1]; 413.65 K, Buoyancy - hydrostatic balance) was 1024.3 ± 6.2 kg/m3, the viscosity ([1]; 413.65 K) was 1.409 ± 0.057 mPa·s and the mass density ([1]; 434.45 K, Pycnometric method) was 1004.06 ± 6 kg/m3. It also gave a mass density ([1]; 464.05 K, Buoyancy - hydrostatic balance) of 973.11 ± 5.8 kg/m3 and a viscosity ([1]; 464.05 K) of 0.789 ± 0.032 mPa·s.

Work on `OCCOCCO` [diethylene glycol] + OCCO yielded a mass density [2, 5] of 1112.21 ± 6.7 kg/m3, a viscosity ([2]; 298.15 K, x1 = 0.5) of 21.12 ± 0.86 mPa·s and a mass density [2, 6] of 1112.21 ± 6.7 kg/m3. For the same molecule, the mass density ([2]; 318.55 K, Pycnometric method, x1 = 0.5) was 1099.83 ± 6.6 kg/m3, the mass density ([2]; 322.34 K, Buoyancy - hydrostatic balance, x2 = 0.5) was 1097.38 ± 6.6 kg/m3 and the viscosity ([2]; 322.34 K, x1 = 0.5) was 8.316 ± 0.34 mPa·s. The mass density ([2]; 333.45 K, Pycnometric method, x1 = 0.5) was 1089.92 ± 6.5 kg/m3, the mass density ([2]; 353.83 K, Buoyancy - hydrostatic balance, x2 = 0.5) was 1075.19 ± 6.5 kg/m3 and the viscosity ([2]; 353.83 K, x1 = 0.5) was 3.488 ± 0.14 mPa·s. For the same molecule, the mass density ([2]; 367.15 K, Pycnometric method, x1 = 0.5) was 1064.82 ± 6.4 kg/m3, the mass density ([2]; 392.87 K, Buoyancy - hydrostatic balance, x2 = 0.5) was 1043.14 ± 6.3 kg/m3 and the viscosity ([2]; 392.87 K, x1 = 0.5) was 1.641 ± 0.067 mPa·s. It also gave a mass density ([2]; 436.08 K, Buoyancy - hydrostatic balance, x2 = 0.5) of 1001.82 ± 6 kg/m3, a viscosity ([2]; 436.08 K, x1 = 0.5) of 0.885 ± 0.036 mPa·s and a mass density ([2]; 462.75 K, Buoyancy - hydrostatic balance, x2 = 0.5) of 973.24 ± 5.8 kg/m3. For the same molecule, the viscosity ([2]; 462.75 K, x1 = 0.5) was 0.671 ± 0.027 mPa·s.

Molecule `OCCOCCOCCO` [triethylene glycol] has a mass density ([1]; 293.15 K, Pycnometric method) of 1123.06 ± 6.8 kg/m3, a mass density [1, 4] of 1119.75 ± 6.7 kg/m3 and a viscosity ([1]; 298.15 K) of 36.82 ± 1.5 mPa·s. For the same molecule, the mass density ([1]; 312.96 K, Buoyancy - hydrostatic balance) was 1109.61 ± 6.7 kg/m3, the viscosity ([1]; 312.96 K) was 19.03 ± 0.79 mPa·s and the mass density ([1]; 313.15 K, Pycnometric method) was 1109.47 ± 6.7 kg/m3. The mass density ([1]; 314.15 K, Pycnometric method) was 1108.77 ± 6.7 kg/m3, the mass density ([1]; 333.25 K, Pycnometric method) was 1094.96 ± 6.6 kg/m3 and the mass density ([1]; 334.85 K, Pycnometric method) was 1093.76 ± 6.6 kg/m3. It also gave a mass density ([1]; 334.96 K, Buoyancy - hydrostatic balance) of 1093.69 ± 6.6 kg/m3, a viscosity ([1]; 334.96 K) of 9.002 ± 0.37 mPa·s and a mass density ([1]; 349.25 K, Buoyancy - hydrostatic balance) of 1082.8 ± 6.5 kg/m3. The viscosity ([1]; 349.25 K) was 5.945 ± 0.25 mPa·s, the mass density ([1]; 352.55 K, Pycnometric method) was 1080.21 ± 6.5 kg/m3 and the mass density ([1]; 352.85 K, Pycnometric method) was 1079.98 ± 6.5 kg/m3. It also gave a mass density ([1]; 364.44 K, Buoyancy - hydrostatic balance) of 1070.74 ± 6.4 kg/m3, a viscosity ([1]; 364.44 K) of 4.131 ± 0.17 mPa·s and a mass density ([1]; 367.25 K, Pycnometric method) of 1068.46 ± 6.5 kg/m3. The mass density ([1]; 381.45 K, Pycnometric method) was 1056.66 ± 6.4 kg/m3, the mass density ([1]; 411.65 K, Pycnometric method) was 1030.16 ± 6.2 kg/m3 and the mass density ([1]; 413.73 K, Buoyancy - hydrostatic balance) was 1028.27 ± 6.2 kg/m3. The viscosity ([1]; 413.73 K) was 1.679 ± 0.069 mPa·s, the mass density ([1]; 433.75 K, Pycnometric method) was 1009.54 ± 6.1 kg/m3 and the mass density ([1]; 461.56 K, Pycnometric method) was 982.12 ± 6 kg/m3. It also gave a mass density ([1]; 462.25 K, Buoyancy - hydrostatic balance) of 981.42 ± 5.9 kg/m3, a viscosity ([1]; 462.25 K) of 0.997 ± 0.041 mPa·s and a mass density ([1]; 476.35 K, Pycnometric method) of 966.87 ± 5.9 kg/m3.

In the case of `OCCOCCOCCO` [triethylene glycol] + OCCO, the mass density ([2]; 298.13 K, Buoyancy - hydrostatic balance, x2 = 0.5) is reported as 1115.1 ± 6.7 kg/m3, the viscosity ([2]; 298.13 K, x1 = 0.5) is reported as 26.24 ± 1.1 mPa·s and the mass density [2, 6] is reported as 1115.45 ± 6.7 kg/m3. For the same molecule, the mass density ([2]; 322.36 K, Buoyancy - hydrostatic balance, x2 = 0.5) was 1101.75 ± 6.6 kg/m3, the viscosity ([2]; 322.36 K, x1 = 0.5) was 10.13 ± 0.41 mPa·s and the mass density ([2]; 355.34 K, Buoyancy - hydrostatic balance, x2 = 0.5) was 1079 ± 6.5 kg/m3. For the same molecule, the viscosity ([2]; 355.34 K, x1 = 0.5) was 3.999 ± 0.16 mPa·s, the mass density ([2]; 392.2 K, Buoyancy - hydrostatic balance, x2 = 0.5) was 1047.37 ± 6.3 kg/m3 and the viscosity ([2]; 392.2 K, x1 = 0.5) was 1.946 ± 0.08 mPa·s. It also gave a mass density ([2]; 434.59 K, Buoyancy - hydrostatic balance, x2 = 0.5) of 1002.88 ± 6 kg/m3, a viscosity ([2]; 434.59 K, x1 = 0.5) of 1.058 ± 0.043 mPa·s and a mass density ([2]; 462.61 K, Buoyancy - hydrostatic balance, x2 = 0.5) of 968.72 ± 5.8 kg/m3. The viscosity ([2]; 462.61 K, x1 = 0.5) was 0.705 ± 0.029 mPa·s.

`OCCOCCOCCO` [triethylene glycol] + OCCOCCO gave a mass density [2, 5] of 1116.28 ± 6.7 kg/m3, a viscosity ([2]; 298.15 K, x1 = 0.5) of 32.4 ± 1.3 mPa·s and a mass density [2, 6] of 1115.61 ± 6.7 kg/m3. For the same molecule, the mass density ([2]; 322.43 K, Buoyancy - hydrostatic balance, x2 = 0.5) was 1104.5 ± 6.6 kg/m3, the viscosity ([2]; 322.43 K, x1 = 0.5) was 11.71 ± 0.48 mPa·s and the mass density ([2]; 355.15 K, Buoyancy - hydrostatic balance, x2 = 0.5) was 1083.98 ± 6.5 kg/m3. The viscosity ([2]; 355.15 K, x1 = 0.5) was 4.468 ± 0.18 mPa·s, the mass density ([2]; 391.02 K, Buoyancy - hydrostatic balance, x2 = 0.5) was 1055.33 ± 6.3 kg/m3 and the viscosity ([2]; 391.02 K, x1 = 0.5) was 2.179 ± 0.089 mPa·s. For the same molecule, the mass density ([2]; 432.13 K, Buoyancy - hydrostatic balance, x2 = 0.5) was 1014.59 ± 6.1 kg/m3, the viscosity ([2]; 432.13 K, x1 = 0.5) was 1.172 ± 0.048 mPa·s and the mass density ([2]; 473.1 K, Buoyancy - hydrostatic balance, x2 = 0.5) was 965.58 ± 5.8 kg/m3. The viscosity ([2]; 473.1 K, x1 = 0.5) was 0.716 ± 0.029 mPa·s.
